Laboratory results reported in PubChem BioAssay AID405 (SGCOxCompounds, 2006).

What follows are molecules tested against Receptor-type tyrosine-protein phosphatase R (Homo sapiens) (UniProt Q15256) (assay: inhibitors of receptor tyrosine phosphatase R – biochemical, recombinant human enzyme, DiFMUP fluorescence (AID 405)). Conditions: recombinant PTPRR, DiFMUP fluorescence phosphatase assay.
Sequence of Receptor-type tyrosine-protein phosphatase R (Homo sapiens) (Q15256 whole entry, looked up): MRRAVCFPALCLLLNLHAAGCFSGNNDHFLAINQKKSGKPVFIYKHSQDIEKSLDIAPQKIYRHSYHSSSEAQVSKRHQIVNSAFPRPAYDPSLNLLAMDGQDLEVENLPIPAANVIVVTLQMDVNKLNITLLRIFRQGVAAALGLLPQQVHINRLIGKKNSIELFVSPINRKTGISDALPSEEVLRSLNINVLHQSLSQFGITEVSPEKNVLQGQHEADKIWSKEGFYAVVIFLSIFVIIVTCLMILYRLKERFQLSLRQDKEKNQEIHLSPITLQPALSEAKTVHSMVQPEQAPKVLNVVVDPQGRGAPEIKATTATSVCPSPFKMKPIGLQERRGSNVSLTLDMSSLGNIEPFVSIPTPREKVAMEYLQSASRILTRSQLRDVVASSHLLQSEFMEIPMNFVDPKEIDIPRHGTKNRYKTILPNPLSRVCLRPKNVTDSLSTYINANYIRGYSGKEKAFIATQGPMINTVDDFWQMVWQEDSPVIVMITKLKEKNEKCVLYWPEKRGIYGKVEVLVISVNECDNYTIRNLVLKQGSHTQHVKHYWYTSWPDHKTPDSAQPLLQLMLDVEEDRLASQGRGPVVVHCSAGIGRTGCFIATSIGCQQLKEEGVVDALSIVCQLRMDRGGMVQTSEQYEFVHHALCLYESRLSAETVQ

| SMILES | IC50 |
| --- | --- |
| O=C(O)c1ccc(O)c(C=Nc2ccc3oc(-c4ccc(F)cc4Cl)nc3c2)c1 | 7.3 µM |
| Cc1ccc(C)n1-c1cc(C(=O)O)ccc1O | 3.9 µM |
| Cc1ccc2nc(-c3cc(N=Cc4cc(C(=O)O)ccc4O)ccc3O)[nH]c2c1 | 25.6 µM |
| CC(=O)c1ccc2c(c1)C1C=CCC1C(C(=O)O)N2 (configuration not stated) | 6.7 µM |
| Cc1ccc(C)n1-c1ccc(C(=O)O)cc1O | 13.7 µM |
| NC1=NC(=O)/C(=C/C=C/c2ccc([N+](=O)[O-])o2)S1 | 2.3 µM |
| COc1ccc(-c2nc3cc(N=Cc4cc(C(=O)O)ccc4O)ccc3o2)cc1 | 15.9 µM |

Same assay, conditions: recombinant PTPRR, DiFMUP fluorescence phosphatase assay; at 50 µM; stronger effect = higher value

| SMILES | inhibition |
| --- | --- |
| OO.OO.[K+].[O]=[V].c1ccc(-c2ccccn2)nc1 | 98% |
| O=C(O)c1ccc([O-])cn1.OO.OO.[K+].[K+].[O]=[V] | 98% |
| O=C1NC(=S)S/C1=C\C=C\c1ccc([N+](=O)[O-])o1 | 100% |
| O=C(O)c1ccc(O)c(C=Nc2ccc3oc(-c4cccc(Cl)c4Cl)nc3c2)c1 | 66% |
| O=C(O)c1ccc(O)c(C=Nc2ccc3oc(-c4cc(Cl)ccc4Cl)nc3c2)c1 | 81% |
| COc1ccc(OC)c(N=Cc2cc(C(=O)O)ccc2O)c1 | 69% |
| O=C([O-])c1ccccn1.OO.OO.[K+].[K+].[O]=[V] | 98% |
| CCn1nc(-c2ccc(Cl)cc2)nc2c(=O)n(C)c(=O)nc1-2 | 64% |
| O=C(O)c1ccc(O)c(/C=N/N(CCO)C2=NS(=O)(=O)c3ccccc32)c1 | 66% |
| Cc1ccc2oc(-c3cccc(N=Cc4cc(C(=O)O)ccc4O)c3)nc2c1 | 51% |
| CCn1nc(/C=C/c2ccccc2)[n+](=O)c2c(=O)n(C)c(=O)[nH]c21 | 63% |
| O=C(O)c1ccc(O)cn1.OO.[O]=[V] | 95% |
| Cn1nc(/C=C/c2ccccc2)nc2c(=O)n(C)c(=O)nc1-2 | 77% |
| O=C(O)c1ccc(O)c(N2C(=O)Nc3ccccc3N2O)c1 | 76% |
| O=C(O)c1ccc(O)c(C=Nc2ccc3oc(-c4ccccc4)nc3c2)c1 | 66% |
| O=C1NC(=S)NC(=O)C1=C/C=C/c1ccco1 | 100% |
| CN(N=O)c1ccc(O)c(O)c1 | 33% |
| CC(C)(c1ccc(NS(=O)(=O)C(F)(F)F)cc1)c1ccc(C(C)(C)c2ccc(NS(=O)(=O)C(F)(F)F)cc2)cc1 | 91% |
| O=C(O)c1ccc(O)c(C=Nc2cccc(-c3nc4ccccc4o3)c2)c1 | 58% |
| O=C(O)c1ccc(O)c(C=Nc2ccc3oc(-c4cccc(Cl)c4)nc3c2)c1 | 83% |
